A melting point compilation (Tetko et al.; mined from patent text by program, amines drawn as free bases though some values may be those of a salt)

melting point | SMILES
176 to 178 °C | C[C@@H]1OCCN(c2nc(N3CCOCC3)nc(-n3c(C(F)F)nc4ccccc43)n2)[C@@H]1C (relative stereo)
203 °C | CCCCc1nc2ccsc2n1Cc1ccc(-c2ccccc2C(=O)O)cc1
182 to 183 °C | COCCNC(=O)c1ccc(CN2C(=O)C3(COc4cc5c(cc43)CCO5)c3ccccc32)cc1 (stereo not given)
169 to 171 °C | Cc1ccc(-c2ccc3c(c2)C=C(C(=O)Nc2ccc(CN(C)C4CCSCC4)cc2)CO3)cc1
162 to 165 °C | Cc1cc(I)cc(C)c1Oc1ccc([N+](=O)[O-])c(Nc2ccc(C#N)cc2)n1
133 to 135 °C | COC(=O)C(O)C(C)(Oc1ccc(Br)cc1)c1ccccc1 (stereo not given)
279 to 281 °C | Nc1c(F)c(N2C[C@@H](N)[C@@H](n3ccnn3)C2)c(F)c2c1c(=O)c(C(=O)O)cn2-c1ccc(F)cc1F (relative stereo)
175 to 177 °C | NC(=O)N1CCN2c3ccccc3Cn3cccc3C2C1 (stereo not given)
180 °C | COc1ccc(Br)c(C(=O)N2CCN(S(=O)(=O)c3ccccc3)CC2)c1
160 to 162 °C | CN(C(=O)c1ccc2nonc2c1)C1CCOCC1
59 to 61 °C | Cc1cc(C(=O)OC2CC(C)(C)NC(C)(C)C2)c(C)o1
169 to 174 °C | O=c1c2c(Cl)cc(Cl)cc2n(Cc2ccccc2)c(=O)n1-c1ccccc1
122 to 124 °C | COc1ccc(N2C(=O)c3cccc(OC)c3NC2c2ccc(OCCCl)cc2)cc1 (stereo not given)
96 to 100 °C | COC(=O)COc1ccc2cc(CNC(=O)OC(C)(C)C)ccc2c1Br
144 to 145 °C | CCOC(=O)C(=NOC)C(C)=NNC(=O)OC(C)(C)C
41 to 42 °C | COC(=O)c1c(C(F)F)nc(C(F)(F)F)c(C(=O)OC)c1OC(C)C
142 to 144 °C | CC1(C)C=C(CN2C/C(=C\c3ccc(F)cc3)C(=O)/C(=C/c3ccc(F)cc3)C2)C(C)(C)N1O
117 to 118 °C | COc1ccc(C(=O)c2cccc(OCc3nc(-c4ccccc4)oc3C)c2)c(O)c1
130 to 132 °C | COC1=C(OC)C(=O)C2=C(CCC(CC(=O)O)CC2)C1=O
217 to 218 °C | O=C(N1CCCC1)N1Cc2c(-c3ccc(F)cc3)ncn2-c2ccccc21
201 to 205 °C | CCCn1c(=O)c2[nH]cnc2n(CCC)c1=O
100 to 101 °C | FC(F)(F)c1ccc2nnc(-c3cccc(Cl)c3Cl)n2c1
87 to 90 °C | CC1(CC(=O)O)CCCCC1=O (stereo not given)

melting point | SMILES
165 to 167 °C | CCCn1c(C)c2c(c1C)C(=O)C(C)=C(C)C2=O
206 to 207 °C | CC(=O)c1ccc2c(c1)C(=O)c1ccccc1CN2
99 to 100 °C | CC(C)CCC1(CCc2ccccc2)CC(O)=CC(=O)O1 (stereo not given)
144 °C | CC(C)c1cc(-c2ccc(F)c3ccccc23)nc(N(S(C)(=O)=O)S(C)(=O)=O)n1
122 °C | CN1C(=O)CCC2=C1CCc1ccc(F)cc12
142 °C | CC(=O)c1ccc(Cl)c(S(=O)(=O)Nc2ccccc2)c1
110 to 112 °C | CCCCCCCC/C=C\CCCCCCCC(=O)NCCNC(=O)CCNC(=O)C1OC(C)(C)OCC1(C)C (stereo not given)
161 to 162 °C | COc1ccc(S(=O)(=O)Nc2cccnc2Nc2cccc(OC)c2)cc1
174 to 182 °C | CC(C)(C#N)Cc1ccc(-c2ccc(CC(C)(C)C#N)cc2)cc1
144 to 145 °C | COc1ccc(Cl)cc1Cn1nc(-c2ccc(C(F)(F)F)cc2)oc1=O
77 to 79 °C | COc1ccc(C(=C(c2ccc(OC)cc2)C(F)(F)F)c2ccc(OCCN(C)C)cc2)cc1
186 to 188 °C | Cc1cc(CCC(=O)OC(C)(C)C)cc(-c2nc(=O)c3ccc(Cl)cc3s2)n1
135 °C | O[C@@H]1CN=C(c2ccccc2)O[C@H]1c1ccccc1 (racemic)
181 °C | Cc1cccc(NC(=O)NC(C(=O)N(c2ccccc2)c2ccccc2)c2ccccc2)c1 (racemic)
99 to 101 °C | ClCCCCCOc1ccc(C2=C(c3ccccc3)CCCc3cc(OC4CCCCO4)ccc32)cc1 (stereo not given)
130 to 132 °C | CS(=O)(=O)c1ccc(Oc2ccc(C(=O)c3ccccc3)cc2)nc1
160 °C | Cn1c([N+](=O)[O-])cnc1CS(=O)c1ccccn1 (stereo not given)
192 °C | CCS(=O)(=O)c1cc(C(=O)NCC2CCCN2CC2=CCCCC2)c(OC)cc1N (stereo not given)
132 to 133 °C | CCN(CCNC(=O)Nc1cc(Cl)ccc1CCc1cc(C(C)(C)C)c(O)c(C(C)(C)C)c1)Cc1ccccc1
111 to 113 °C | CC(=O)C(=NNc1ccccc1)Sc1ccc(Cl)cc1
> 300 °C | COc1cc2cc3c(Nc4ccc(Sc5nccn5C)c(Cl)c4)c(C#N)cnc3cc2cc1OCCCCl
184 to 186 °C | CC(C)(C)C1(Cl)Cc2cc(OCC(=O)O)c(Cl)c(Cl)c2C1=O (stereo not given)
153 to 154 °C | Cc1ccc(S(=O)(=O)N2CCC(c3ccccc3)CC2)cc1

melting point | SMILES
72 to 73 °C | CCOC(=O)C(C)c1ccc(-c2ccc(F)cc2F)c(O)c1 (stereo not given)
43 to 45 °C | COCCOCCOCCOc1cc([N+](=O)[O-])c([N+](=O)[O-])cc1OCCOCCOCCOC
191 to 193 °C | CCCc1ccccc1OCCCOc1ccc2c(=O)cc(-c3nnn[nH]3)oc2c1
205 to 206 °C | COC(=O)c1ccc(-c2cc(-c3ccccc3)no2)cc1
156 to 157 °C | CCCCC(=O)Nc1c(C)c(C)c2c(c1C)C(c1ccc(C)cc1)C(C)(C)O2 (stereo not given)
76.3 to 77.2 °C | CCCCCCCC(=O)ON=C(c1ccccc1)c1cc(C(C)(C)C)c(O)c(C(C)(C)C)c1
138 °C | Cc1c(NC(=O)c2ccc(OCC3CCCO3)cc2)ccc2cc(CNCC(C)(C)O)cnc12 (stereo not given)
71 to 73 °C | CC(CC1(c2ccc(Cl)cc2)CCC1)NC=O (stereo not given)
127 to 129 °C | CNC(=O)CCN1CCC(C(O)(c2ccc(F)cc2)c2ccc(F)cc2)CC1
129 to 132 °C | O=[N+]([O-])c1cc(Cl)cnc1N1CCN(C/C=C/c2ccc(C(F)(F)F)cc2)CC1
80 to 82 °C | CC(C)(C)NS(=O)(=O)c1cccs1
78 to 80 °C | CN(C)c1nn(C(=O)Cl)c(=O)n1C
212 to 213 °C | Cc1nnc(-c2ccc3ncn(-c4cccc(C(F)(F)F)c4)c3c2)o1
236 to 238 °C | Cn1cc(C2=C(c3c4n(c5ccccc35)CC(CCO)CC4)C(=O)NC2=O)c2ccccc21 (stereo not given)
98 to 100 °C | CCn1nc(C(F)(F)F)c(CS(=O)(=O)C2=NOC(C)(C)C2)c1OC(F)F
158 to 159 °C | Cc1c(NC(=O)c2ccc(OC[C@@H]3CCCO3)cc2)ccc2cc(CNC3CCOCC3)cnc12
> 250 °C | CCc1ccc(Nc2nc3cc(NC(=O)c4ccc([N+](=O)[O-])cc4Cl)ccc3o2)cc1
119 to 121 °C | CN1C(=O)CSc2ccc(Cl)cc21
108 to 110 °C | CCOC(=O)C1Cc2ccc(OC)c(Cl)c2O1 (stereo not given)
80 to 83 °C | O=S(=O)(F)c1cc(Cl)c(Cl)cc1Cl
160 to 161 °C | CC(C)Cc1nc2c(N)nc3c(c2n1CC(C)C)CCCC3
93 to 94 °C | CN(Cc1ccc(N)cc1)C1CCOCC1
124 °C | CCCCN(CCCC)C(=O)CC1C(=O)N(c2ccc(Cl)cc2)C(=O)N1c1ccc(Cl)cc1 (stereo not given)

melting point | SMILES
59 to 62 °C | Nc1cccnc1-c1ccccc1
116 °C | CCOC(=O)N1CCC(Nc2ccc(Cl)cc2[N+](=O)[O-])CC1
167 to 169 °C | O=C(Nc1ccc(O)cc1)C(=O)N1CCC(Cc2ccccc2)CC1
105 to 110 °C | O=C(O)Cc1cc2c(s1)-c1ccccc1OC2C1=CCCC=C1 (stereo not given)
194 to 196 °C | COc1cc(C=Cc2ccc(=O)[nH]n2)cc(OC)c1OC
76 °C | CC1(C)COc2ccc(OC(F)(F)F)cc2C(O)(c2ccccn2)C1 (stereo not given)
152 to 154 °C | CC(=O)c1csc(-c2nc3n(c2-c2ccncc2)CCC3)c1
90 to 95 °C | CC(C)(NC=O)c1cccc(C(F)(F)C(F)(F)c2ccccc2)c1
131 to 132 °C | O=S1(=O)C[C@H](O)[C@H](O)CS1
143 to 144 °C | CCOc1nnc2n1C=Cc1ccccc1C2
92.7 °C | CCN(c1cc(Cl)c(Cl)cc1Cl)C(C(=O)O)c1ccccc1OC (stereo not given)
76 to 76.5 °C | COC1(c2ccc(C)cc2)CCC(=O)CC1
222 °C | C[C@H]1CCC[C@@](O)(CNC(=O)c2c(Cl)ccc3nc(N4CC[C@H](O)C4)ccc23)C1
176 to 177 °C | COc1c(N2CCCC(NC(C)=O)C2)c(F)cc2c(=O)c(C(=O)O)cn(C3CC3)c12 (stereo not given)
206 to 207 °C | Cc1c(-c2ccncn2)nc2n(c1=O)CCCN2
122 °C | COCS[C@H](C)[C@](O)(Cn1cncn1)c1ccc(Cl)cc1
148 to 150 °C | CC(C)(C)OC(=O)NOCC(=O)NNC(=O)c1cc(S(=O)(=O)O)cc(O)c1O
108 to 111 °C | O=C(NCCC12CC3CC(CC(C3)C1)C2)c1cc(-c2cccnc2C(=O)O)ccc1Cl
193 to 196 °C | CC(=O)N[C@H]1CC[C@H](CCC(=O)O)CC1
218 to 220 °C | O=C(Nc1cccc(Br)n1)Nc1cccc2c1C1CCCCN1C2=O (stereo not given)
181 to 185 °C | CC(C)c1c(C=CC2CC(O)CC(O)O2)n(-c2ccc(Cl)cc2)c(=O)c2ccccc12 (mixture of isomers)
108 °C | FC(F)(F)c1nncn1-c1ccc(Cl)cc1
78 to 80 °C | CCCCCCCN(CCCCCSc1nc(-c2ccccc2)c(-c2ccccc2)[nH]1)C(=O)NCCC

SMILES | melting point
N#CC(CCN1CCC(C(=O)ON2C(=O)CCC2=O)(c2ccccc2)CC1)(c1ccccc1)c1ccccc1 | 156 to 158 °C
Cc1ncc2n1-c1ccc(Cl)cc1C(c1ccccc1)=[N+]([O-])C2 | 260 to 261 °C
CCCN1C(=O)CC(=O)N(c2ccccc2)c2cc(Cl)ccc21 | 192 to 194 °C
CN1C(=O)[C@H](NC(=O)CCCc2cccs2)N=C(c2ccccc2)c2ccccc21 | 170 to 180 °C
Cc1ccc2c(C(=O)O)cn(C(C)C)c2c1 | 185 to 186 °C
CC(C)OC(=O)c1ncn2c1CN(C)C(=O)c1ccccc1-2 | 190 to 192 °C
COC(=O)CC1CC(c2ccc(C#N)nc2)=NO1 (stereo not given) | 115 to 116 °C
CN1COCNC1=N[N+](=O)[O-] | 137 to 139 °C
